Laboratory results: patent publication US12404241B2 (Celgene Corporation, priority 2018, dated 2025)
Structures can show the parent of a compound that is named as a salt.

Molecular target: T1, AR (Homo sapiens, UniProt P10275)
T1 construct: endogenous in cells; host or cells: VCaP cells
T1 sequence (P10275 1-920): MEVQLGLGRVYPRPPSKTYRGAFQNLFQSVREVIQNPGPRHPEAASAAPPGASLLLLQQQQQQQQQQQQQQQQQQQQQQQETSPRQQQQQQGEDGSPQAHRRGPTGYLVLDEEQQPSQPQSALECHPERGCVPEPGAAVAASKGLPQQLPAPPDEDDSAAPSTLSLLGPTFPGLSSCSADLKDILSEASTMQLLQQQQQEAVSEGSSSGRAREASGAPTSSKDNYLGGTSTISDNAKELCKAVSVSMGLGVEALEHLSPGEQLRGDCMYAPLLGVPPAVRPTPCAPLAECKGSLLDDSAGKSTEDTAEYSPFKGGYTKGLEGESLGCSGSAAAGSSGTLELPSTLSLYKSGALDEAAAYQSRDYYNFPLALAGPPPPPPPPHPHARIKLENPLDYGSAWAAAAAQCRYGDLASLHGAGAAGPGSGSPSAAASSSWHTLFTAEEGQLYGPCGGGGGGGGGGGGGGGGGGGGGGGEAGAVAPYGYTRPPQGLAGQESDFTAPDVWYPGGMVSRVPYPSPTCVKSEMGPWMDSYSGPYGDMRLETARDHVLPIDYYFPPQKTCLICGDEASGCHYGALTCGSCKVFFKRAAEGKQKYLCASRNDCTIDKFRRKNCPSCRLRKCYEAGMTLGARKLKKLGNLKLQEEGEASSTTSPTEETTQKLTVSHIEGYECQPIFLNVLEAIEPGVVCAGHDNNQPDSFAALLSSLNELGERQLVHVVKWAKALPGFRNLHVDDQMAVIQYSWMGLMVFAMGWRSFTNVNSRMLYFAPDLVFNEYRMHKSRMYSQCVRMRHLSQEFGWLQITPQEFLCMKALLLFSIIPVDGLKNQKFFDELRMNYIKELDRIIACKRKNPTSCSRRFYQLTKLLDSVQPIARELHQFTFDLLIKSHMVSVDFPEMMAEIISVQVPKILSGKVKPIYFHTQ
Experiment: VCAP AR Degradation Assay
Assay type: cell-based
Conditions: for Y (AR degradation efficiency, % of DMSO control): class symbols *; for DC50: class symbols A-C, read-out: DC50
Procedure: VCAP AR Degradation Assay. Test compounds were pre-dispensed into a Corning CellBind 96-well clear bottom plate (Cat #3300) using an acoustic dispenser to make a 10-point concentration series at 1:3 dilution for each compound. The final top concentration of each compound was 5 μM. DMSO at a final concentration of 0.1% was used as a control. VCaP cells cultured in DMEM with 8% fetal bovine serum (FBS) were seeded at 50K cells per well in a 200 μL volume into the compound plate and incubated at 37° C. in a CO2 incubator for 24 h. The medium was carefully removed from the cells and the plate was placed on ice. One hundred μL of ice-cold 1x cell lysis buffer from Cell Signaling Technologies (Cat #9803) was added to each well of the cells and the plate was incubated at 4° C. on a shaker for 1 h. Fifteen μL of cell lysate was used for AR ELISA detection using a PathScan Total Sandwich AR ELISA kit (Cell Signaling Technology, Cat #12580). AR levels in compound-treated wells were normalized to that of DMSO control and expressed as percent of control (PoC) (y). A Four Parameter Logistic Model (Sigmoidal Dose-Response Model) was used to determine the compound's DC50, and EC50, using the following equation:
[formula] • A=YMin (lowest AR level normalized to DMSO control in response to compound treatment, as determined by curve fit) • B=YMax (maximum AR level as determined by curve fit) • C=EC50 • D=Hill Slope • x=compound concentration • EC50=the concentration of compound when y=(YMax−YMin)/2 • DC50=the concentration of the compound when y=50% of DMSO control (50% AR degradation) • y=AR protein level normalized to DMSO control
The lowest measured AR level normalized to DMSO control in response to compound treatment, termed Y value, was used to characterize the compound-mediated AR degradation efficiency.

Y (AR degradation efficiency, % of DMSO control) | DC50 [nM] | SMILES
* (0<Y<=25%) | < 100 | CCc1cc(N2C(=S)N(c3cnc(C#N)c(C(F)(F)F)c3)C(=O)C23CCC3)ccc1OCCN1C[C@@H](C)N(CC(=O)Nc2cc(NC3CCC(=O)NC3=O)ccc2F)[C@@H](C)C1 (stereo partly drawn) [Example 190, 2-((2S,6R)-4-(2-(4-(7-(6-cyano-5-(trifluoromethyl)pyridin-3-yl)-8-oxo-6-thioxo-5,7-diazaspiro[3.4]octan-5-yl)-2-ethylphenoxy)ethyl)-2,6-dimethylpiperazin-1-yl)-N-(5-(2,6-dioxopiperidin-3-ylamino)-2-fluorophenyl)acetamide]
* (0<Y<=25%) | < 100 | CCc1cc(N2C(=S)N(c3cnc(C#N)c(C(F)(F)F)c3)C(=O)C2(C)C)ccc1OCCN1CCN(CC(=O)Nc2cccc(NC3CCC(=O)NC3=O)c2)[C@H](C(F)(F)F)C1 (stereo partly drawn) [Example 201, 2-((S)-4-(2-(4-(3-(6-cyano-5-(trifluoromethyl)pyridin-3-yl)-5,5-dimethyl-4-oxo-2-thioxoimidazolidin-1-yl)-2-ethylphenoxy)ethyl)-2-(trifluoromethyl)piperazin-1-yl)-N-(3-(2,6-dioxopiperidin-3-ylamino)phenyl)acetamide]
* (0<Y<=25%) | < 100 | CCc1cc(N2C(=S)N(c3cnc(C#N)c(C(F)(F)F)c3)C(=O)C2(C)C)ccc1OCCN1C[C@@H](C)N(CC(=O)Nc2cc(Cl)cc(NC3CCC(=O)NC3=O)c2)C[C@H]1C (stereo partly drawn) [Example 169, N-(3-chloro-5-(2,6-dioxopiperidin-3-ylamino)phenyl)-2-((2R,5R)-4-(2-(4-(3-(6-cyano-5-(trifluoromethyl)pyridin-3-yl)-5,5-dimethyl-4-oxo-2-thioxoimidazolidin-1-yl)-2-ethylphenoxy)ethyl)-2,5-dimethylpiperazin-1-yl)acetamide]
* (0<Y<=25%) | < 100 | CCc1cc(N2C(=S)N(c3cnc(C#N)c(C(F)(F)F)c3)C(=O)C23CCC3)ccc1OCCN1CCN(CC(=O)Nc2cccc(NC3CCC(=O)NC3=O)c2)[C@H](C)C1 (stereo partly drawn) [Example 108, 2-((R)-4-(2-(4-(7-(6-cyano-5-(trifluoromethyl)pyridin-3-yl)-8-oxo-6-thioxo-5,7-diazaspiro[3.4]octan-5-yl)-2-ethylphenoxy)ethyl)-2-methylpiperazin-1-yl)-N-(3-(2,6-dioxopiperidin-3-ylamino)phenyl)acetamide]
*** (35%<Y<50%) | < 100 | CC1(C)C(=O)N(c2cnc(C#N)c(C(F)(F)F)c2)C(=S)N1c1ccc(OCCN2CCN(CC(=O)Nc3cc(Cl)cc(NC4CCC(=O)NC4=O)c3)CC2)c(CO)c1 (centres unmarked) [Example 91, N-(3-chloro-5-(2,6-dioxopiperidin-3-ylamino)phenyl)-2-(4-(2-(4-(3-(6-cyano-5-(trifluoromethyl)pyridin-3-yl)-5,5-dimethyl-4-oxo-2-thioxoimidazolidin-1-yl)-2-(hydroxymethyl)phenoxy)ethyl)piperazin-1-yl)acetamide]
* (0<Y<=25%) | < 100 | C[C@@H]1CN(CCOc2ccc(N3C(=S)N(c4cnc(C#N)c(C(F)(F)F)c4)C(=O)C3(C)C)cc2C(C)(F)F)C[C@H](C)N1CC(=O)Nc1cc(C#N)cc(NC2CCC(=O)NC2=O)c1 (stereo partly drawn) [Example 258, N-(3-cyano-5-(2,6-dioxopiperidin-3-ylamino)phenyl)-2-((2S,6R)-4-(2-(4-(3-(6-cyano-5-(trifluoromethyl)pyridin-3-yl)-5,5-dimethyl-4-oxo-2-thioxoimidazolidin-1-yl)-2-(1,1-difluoroethyl)phenoxy)ethyl)-2.6-dimethylpiperazin-1-yl)acetamide]
* (0<Y<=25%) | < 100 | CCc1cc(N2C(=S)N(c3cnc(C#N)c(C(F)(F)F)c3)C(=O)C2(C)C)ccc1OCCN1CCN(CC(=O)Nc2cccc(NC3CCC(=O)NC3=O)c2)[C@H](C)C1 (stereo partly drawn) [Example 81, 2-((R)-4-(2-(4-(3-(6-cyano-5-(trifluoromethyl)pyridin-3-yl)-5,5-dimethyl-4-oxo-2-thioxoimidazolidin-1-yl)-2-ethylphenoxy)ethyl)-2-methylpiperazin-1-yl)-N-(3-(2,6-dioxopiperidin-3-ylamino)phenyl)acetamide]
* (0<Y<=25%) | < 100 | C[C@@H]1CN(CCOc2ccc(N3C(=S)N(c4cnc(C#N)c(C(F)(F)F)c4)C(=O)C3(C)C)cc2CCF)CCN1CC(=O)Nc1cccc(NC2CCC(=O)NC2=O)c1 (stereo partly drawn) [Example 166, 2-((R)-4-(2-(4-(3-(6-cyano-5-(trifluoromethyl)pyridin-3-yl)-5,5-dimethyl-4-oxo-2-thioxoimidazolidin-1-yl)-2-(2-fluoroethyl)phenoxy)ethyl)-2-methylpiperazin-1-yl)-N-(3-(2,6-dioxopiperidin-3-ylamino)phenyl)acetamide]

SMILES | Y (AR degradation efficiency, % of DMSO control) | DC50 [nM]
C[C@@H]1CN(CCOc2ccc(N3C(=S)N(c4ccc(C#N)c(C(F)(F)F)c4)C(=O)C3(C)C)cc2CC(F)F)CCN1CC(=O)Nc1cc(F)cc(NC2CCC(=O)NC2=O)c1 (stereo partly drawn) [Example 158, 2-((R)-4-(2-(4-(3-(4-cyano-3-(trifluoromethyl)phenyl)-5,5-dimethyl-4-oxo-2-thioxoimidazolidin-1-yl)-2-(2,2-difluoroethyl)phenoxy)ethyl)-2-methylpiperazin-1-yl)-N-(3-(2,6-dioxopiperidin-3-ylamino)-5-fluorophenyl)acetamide] | * (0<Y<=25%) | < 100
C[C@@H]1CN(CCOc2ccc(N3C(=S)N(c4ccc(C#N)c(C(F)(F)F)c4)C(=O)C3(C)C)cc2CC(F)F)CCN1CC(=O)Nc1cccc(NC2CCC(=O)NC2=O)c1 (stereo partly drawn) [Example 153, 2-((R)-4-(2-(4-(3-(4-cyano-3-(trifluoromethyl)phenyl)-5,5-dimethyl-4-oxo-2-thioxoimidazolidin-1-yl)-2-(2,2-difluoroethyl)phenoxy)ethyl)-2-methylpiperazin-1-yl)-N-(3-(2,6-dioxopiperidin-3-ylamino)phenyl)acetamide] | * (0<Y<=25%) | < 100
CCc1cc(N2C(=S)N(c3ccc(C#N)c(C(F)(F)F)c3)C(=O)C2(C)C)ccc1OCCN1CCN(CC(=O)Nc2cc(Cl)cc(NC3CCC(=O)NC3=O)c2)C(C)(C)C1 (centres unmarked) [Example 79, N-(3-chloro-5-(2,6-dioxopiperidin-3-ylamino)phenyl)-2-(4-(2-(4-(3-(4-cyano-3-(trifluoromethyl)phenyl)-5,5-dimethyl-4-oxo-2-thioxoimidazolidin-1-yl)-2-ethylphenoxy)ethyl)-2,2-dimethylpiperazin-1-yl)acetamide] | ** (25%<Y<=35%) | < 100
CC1(C)C(=O)N(c2ccc(C#N)c(C(F)(F)F)c2)C(=S)N1c1ccc(OCCN2CCN(CC(=O)Nc3cccc(NC4CCC(=O)NC4=O)c3)CC2)c(C(F)(F)F)c1 (centres unmarked) [Example 12, hydrochloride] | *** (35%<Y<50%) | 100 to 500
CCc1cc(N2C(=S)N(c3ccc(C#N)c(C(F)(F)F)c3)C(=O)C2(C)C)ccc1OCCN1CCN(CC(=O)Nc2cccc(NC3CCC(=O)NC3=O)c2)C[C@H]1CO (some centres unmarked) [Example 49] | ** (25%<Y<=35%) | < 100
